Here are results for 30 compounds from ChEMBL document CHEMBL4725475, “Discovery of Potent and Selective 7-Azaindole Isoindolinone-Based PI3Kγ Inhibitors” (ACS Med Chem Lett, 2020).

The species entered for data set [1] is Homo sapiens. As to the kind of experiment: Selectivity index, ratio of inhibition for PI3Kdelta (unknown origin) to inhibition for PI3K p120 gamma (unknown origin) using phosphatidylinositol 4,5-bisphosphate as substrate in presence of ATP incubated for 60 mins by ADP-Glo assay.
For data set [2], the target named is T1, Phosphatidylinositol 4,5-bisphosphate 3-kinase catalytic subunit gamma isoform (Homo sapiens, UniProt P48736). The data set is described as follows: Inhibition of PI3Kgamma in human THP-1 cells assessed as reduction in Akt phosphorylation at S473 residue incubated for 60 mins measured after 120 mins by alphalisa assay. The format is cell-based. Background: Bead proximity is the source of the signal in Alpha formats.
T1 sequence (P48736 whole entry, canonical isoform): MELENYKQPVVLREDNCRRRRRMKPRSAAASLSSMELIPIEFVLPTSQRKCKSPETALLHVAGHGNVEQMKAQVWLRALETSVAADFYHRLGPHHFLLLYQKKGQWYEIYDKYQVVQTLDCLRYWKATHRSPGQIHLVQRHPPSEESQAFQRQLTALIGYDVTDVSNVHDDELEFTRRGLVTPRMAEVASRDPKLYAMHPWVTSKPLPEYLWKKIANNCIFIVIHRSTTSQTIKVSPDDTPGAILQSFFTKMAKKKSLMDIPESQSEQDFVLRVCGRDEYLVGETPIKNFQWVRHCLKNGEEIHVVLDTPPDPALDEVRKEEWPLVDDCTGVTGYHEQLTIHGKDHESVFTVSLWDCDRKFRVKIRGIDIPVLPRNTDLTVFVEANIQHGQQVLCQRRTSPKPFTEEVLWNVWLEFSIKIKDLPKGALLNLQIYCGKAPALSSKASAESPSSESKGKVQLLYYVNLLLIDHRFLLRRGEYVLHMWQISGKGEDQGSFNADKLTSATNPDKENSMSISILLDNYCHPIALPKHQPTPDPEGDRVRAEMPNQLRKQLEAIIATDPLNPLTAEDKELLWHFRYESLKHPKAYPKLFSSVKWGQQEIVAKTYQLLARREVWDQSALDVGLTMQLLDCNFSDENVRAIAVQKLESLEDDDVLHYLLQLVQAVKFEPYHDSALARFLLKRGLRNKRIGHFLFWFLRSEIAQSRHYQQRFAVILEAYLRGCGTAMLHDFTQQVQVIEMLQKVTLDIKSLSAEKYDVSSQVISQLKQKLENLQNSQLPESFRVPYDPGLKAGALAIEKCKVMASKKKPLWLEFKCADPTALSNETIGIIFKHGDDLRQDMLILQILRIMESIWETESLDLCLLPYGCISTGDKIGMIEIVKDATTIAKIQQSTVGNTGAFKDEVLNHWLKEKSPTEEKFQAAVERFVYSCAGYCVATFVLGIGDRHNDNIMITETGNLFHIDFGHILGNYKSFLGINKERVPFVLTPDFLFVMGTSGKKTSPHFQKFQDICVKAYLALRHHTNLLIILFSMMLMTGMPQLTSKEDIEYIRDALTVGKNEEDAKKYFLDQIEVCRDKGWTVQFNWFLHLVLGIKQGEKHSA

For data set [3], the species on record is Homo sapiens. As to the kind of experiment: Selectivity index, ratio of inhibition for PI3Kalpha (unknown origin) to inhibition for PI3K p120 gamma (unknown origin) using phosphatidylinositol 4,5-bisphosphate as substrate in presence of ATP incubated for 60 mins by ADP-Glo assay. On the technique in general: ADP-Glo turns the ADP formed in a reaction into a luminescent signal.

Data set [4] can be described thus: Intrinsic clearance in rat hepatocytes assessed as per million cells. It is filed as ADME, cell-based, Hepatocyte.
The target of data set [5] is T1, Phosphatidylinositol 4,5-bisphosphate 3-kinase catalytic subunit gamma isoform. As to the kind of experiment: Inhibition of PI3K p120gamma (unknown origin) using phosphatidylinositol 4,5-bisphosphate as substrate in presence of ATP incubated for 60 mins by ADP-Glo assay.
A short description of data set [6]: Intrinsic clearance in cryopreserved human hepatocytes assessed as per million cells at 0.5 uM by LC-MS/MS analysis. The format is ADME, cell-based, Hepatocyte.
The nature of data set [7]: Clearance in Sprague-Dawley rat at 0.25 mg/kg, iv measured upto 8 hrs by LC/MS/MS analysis. The note with it: in vivo. The format is ADME, organism-based.

In general, IC50 refers to the point on the concentration scale where inhibition reaches its midpoint. As to `Cc1cc(-c2cnc3[nH]cc(-c4ccc(CC(=O)O)cc4)c3c2)cc2c1C(=O)N([C@@H](C)C1CC1)C2`, the Selectivity ratio in data set [1] was 872; in data set [3] it was 878. Also, the results for the IC50 in data set [2] and in data set [5] were 160 nM and 2.6 nM, respectively. The results for the CLH in data set [4] and in data set [6] were 17 µL/min/1e6 cells and 6.9 µL/min/1e6 cells, respectively.

Usually clearance stands for a measure of how efficiently the substance is removed, as volume per time. A high value points to a high capacity for elimination. In turn, `Cc1cc(-c2cnc3[nH]cc(-c4ccc(C5(C(=O)O)CC5)cc4)c3c2)cc2c1C(=O)N([C@@H](C)C1CC1)C2` gave a clearance in data set [7] of 30 mL/min/kg. In addition, the Selectivity ratio was found to be 1400 in data set [1] and 863 in data set [3]. Moreover, the IC50 stood at 150 nM in data set [2] and 3.3 nM in data set [5]. The CLH was determined as 16 µL/min/1e6 cells in data set [4] and 1.7 µL/min/1e6 cells in data set [6].

Regarding `Cc1cc(-c2cnc3[nH]cc(-c4ccncc4)c3c2)cc2c1C(=O)N(C(C1CC1)C1CC1)C2`, the Selectivity ratio in data set [1] is 901; in data set [3], 253. For the same compound, the concentration for half-maximal inhibition (IC50) in data set [2] came to 800 nM; in data set [5] it was 6.8 nM.

As to `Cc1cc(-c2cnc3[nH]cc(-c4ccc(C(=O)O)c(C(C)C)c4)c3c2)cc2c1C(=O)N([C@@H](C)C1CC1)C2`, the Selectivity ratio was determined as 344 in data set [1] and 224 in data set [3]. The results for the IC50 in data set [2] and in data set [5] were 59 nM and 2.1 nM, respectively.

For the compound `Cc1cc(-c2c[nH]c3ncc(-c4cc(C)c5c(c4)CN([C@@H](C)C4CC4)C5=O)cc23)ccc1C(=O)O`, the Selectivity ratio in data set [1] amounted to 505; in data set [3], 433. Further, the half-maximal inhibitory concentration (IC50) came out at 78 nM in data set [2] and 2.8 nM in data set [5]. Also, the CLH in data set [4] stood at 51 µL/min/1e6 cells; in data set [6], 19 µL/min/1e6 cells.

On to `Cc1cc(-c2cnc3[nH]cc(-c4ccccn4)c3c2)cc2c1C(=O)N([C@@H](C)C1CC1)C2`, for which the Selectivity ratio in data set [1] and in data set [3] was above 308 in each case. The figures for the half-maximal inhibitory concentration (IC50) in data set [2] and in data set [5] were 3500 nM and 33 nM, respectively.

As for `Cc1cc(-c2c[nH]c3ncc(-c4cc(C)c5c(c4)CN([C@@H](C)C4CC4)C5=O)cc23)cc(C)c1C(=O)O`, in data set [7], the clearance was 115 mL/min/kg. Moreover, the Selectivity ratio in data set [1] turned out to be 1210; in data set [3], 1520. Further, the IC50 in data set [2] stood at 90 nM; in data set [5], 2.2 nM. Besides, the CLH in data set [4] stood at 46 µL/min/1e6 cells; in data set [6] it was 20 µL/min/1e6 cells.

As for `Cc1cc(-c2cnc3[nH]cc(C(=O)Nc4ccncc4)c3c2)cc2c1C(=O)N([C@@H](C)C1CC1)C2`, the Selectivity ratio in data set [1] and in data set [3] was above 856 each time. The IC50 in data set [2] worked out at 1300 nM; in data set [5], 12 nM.

Consider `Cc1cc(-c2c[nH]c3ncc(-c4cc5c(c(C(F)(F)F)c4)C(=O)N([C@@H](C)C4CC4)C5)cc23)ccc1C(=O)O`, for which the figures for the Selectivity ratio in data set [1] and in data set [3] were 335 and 918, respectively. Moreover, the IC50 in data set [2] amounted to 40 nM; in data set [5], 1.2 nM. In addition, the results for the CLH in data set [4] and in data set [6] were 2 µL/min/1e6 cells and below 1.2 µL/min/1e6 cells, respectively.

As to `Cc1cc(-c2cnc3[nH]cc(-c4ccc(C(C)(C)C(=O)O)cc4)c3c2)cc2c1C(=O)N([C@@H](C)C1CC1)C2`, the results for the Selectivity ratio in data set [1] and in data set [3] were 968 and 835, respectively. In addition, the IC50 came to 180 nM in data set [2] and 2.1 nM in data set [5]. Moreover, the figures for the CLH in data set [4] and in data set [6] were 27 µL/min/1e6 cells and 2.3 µL/min/1e6 cells, respectively.

As to `Cc1cc(-c2cnc3[nH]cc(C4CCNC4)c3c2)cc2c1C(=O)N([C@@H](C)C1CC1)C2` (some centres not stated), the Selectivity ratio in data set [1] and in data set [3] was above 36 throughout. The IC50 is 3800 nM in data set [2] and 281 nM in data set [5].

`Cc1cc(-c2cnc3[nH]cc(-c4ccnc(N)c4)c3c2)cc2c1C(=O)N([C@@H](C)C1CC1)C2`: the Selectivity ratio in data set [1] was determined as 640; in data set [3], 214. Moreover, the concentration for half-maximal inhibition (IC50) in data set [2] is 400 nM; in data set [5], 5.8 nM.

Turning to `C[C@@H](C1CC1)N1Cc2cc(-c3cnc4[nH]cc(-c5cnn(C)c5)c4c3)cc(C(F)(F)F)c2C1=O`, the values for the Selectivity ratio in data set [1] and in data set [3] were 266 and 2800, respectively. Moreover, the IC50 in data set [2] is 90 nM; in data set [5] it was 2.4 nM.

With `Cc1cc(-c2cnc3[nH]cc(-c4ccccc4C(=O)O)c3c2)cc2c1C(=O)N([C@@H](C)C1CC1)C2`, the Selectivity ratio in data set [1] and in data set [3] was above 59 in each case. Moreover, the concentration for half-maximal inhibition (IC50) in data set [2] was 15000 nM; in data set [5] it was 180 nM.

As to `Cc1cc(-c2cnc3[nH]cc(-c4cc(C)c(C(=O)O)c(C5CC5)c4)c3c2)cc2c1C(=O)N([C@@H](C)C1CC1)C2`, the Selectivity ratio worked out at 367 in data set [1] and 691 in data set [3]. Further, the IC50 in data set [2] is 70 nM; in data set [5] it was 1.2 nM.

Take `Cc1cc(-c2cnc3[nH]cc(-c4ccncc4)c3c2)cc2c1C(=O)N(C1CCOCC1)C2`: the Selectivity ratio in data set [1] worked out at 18; in data set [3], 7. The half-maximal inhibitory concentration (IC50) is 1000 nM in data set [2] and 50 nM in data set [5].

Turning to `C[C@@H](C1CC1)N1Cc2cc(-c3cnc4[nH]cc(-c5ccc(C6(C(=O)O)CC6)cc5)c4c3)cc(C(F)(F)F)c2C1=O`, the Selectivity ratio in data set [1] was 620; in data set [3] it was 742. Moreover, the half-maximal inhibitory concentration (IC50) in data set [2] amounted to 110 nM; in data set [5] it was 3.6 nM. The CLH turned out to be 18 µL/min/1e6 cells in data set [4] and 2.6 µL/min/1e6 cells in data set [6].

Take `Cc1cc(-c2c[nH]c3ncc(-c4cc5c(c(C(F)(F)F)c4)C(=O)N([C@@H](C)C4CC4)C5)cc23)cc(C)c1C(=O)O`: the clearance in data set [7] is 467 mL/min/kg. Further, the Selectivity ratio amounted to 84 in data set [1] and 257 in data set [3]. Besides, the IC50 in data set [2] is 30 nM; in data set [5], 2.8 nM. The CLH in data set [4] is below 1.2 µL/min/1e6 cells; in data set [6], 1.8 µL/min/1e6 cells.

As for `Cc1cc(-c2cnc3[nH]cc(-c4ccc(C#N)cc4)c3c2)cc2c1C(=O)N([C@@H](C)C1CC1)C2`, the Selectivity ratio in data set [1] and in data set [3] was above 242 in each case. Further, the IC50 worked out at 3500 nM in data set [2] and 42 nM in data set [5].

On to `CNC(=O)c1cc(-c2cnc3[nH]cc(-c4cnn(C)c4)c3c2)cc2c1C(=O)N([C@@H](C)C1CC1)C2`, for which the Selectivity ratio in data set [1] is above 1180; in data set [3] it was 1050. In addition, the IC50 worked out at 730 nM in data set [2] and 7.9 nM in data set [5].

For the compound `Cc1cc(-c2c[nH]c3ncc(-c4cc(C)c5c(c4)CN([C@@H](C)C4CC4)C5=O)cc23)ccc1CC(=O)O`, the clearance in data set [7] was 30 mL/min/kg. Further, the Selectivity ratio stood at 397 in data set [1] and 539 in data set [3]. Moreover, the IC50 in data set [2] came to 150 nM; in data set [5] it was 3.3 nM. The CLH in data set [4] came to 23 µL/min/1e6 cells; in data set [6], 8 µL/min/1e6 cells.

`Cc1ccc(-c2c[nH]c3ncc(-c4cc(C)c5c(c4)CN([C@@H](C)C4CC4)C5=O)cc23)cc1C(=O)O`: the Selectivity ratio in data set [1] was above 1900; in data set [3] it was above 1560. Also, the IC50 is 260 nM in data set [2] and 5 nM in data set [5].

For the compound `Cc1cc(-c2cnc3[nH]cc(-c4ccncc4)c3c2)cc2c1C(=O)N(CC(F)(F)F)C2`, the Selectivity ratio is 62 in data set [1] and 42 in data set [3]. The concentration for half-maximal inhibition (IC50) in data set [2] turned out to be 1600 nM; in data set [5], 25.3 nM.

Regarding `Cc1cc(-c2cnc3[nH]cc(C(=O)NC4CCOCC4)c3c2)cc2c1C(=O)N([C@@H](C)C1CC1)C2`, the Selectivity ratio was 1030 in data set [1] and above 2240 in data set [3]. Further, the IC50 in data set [2] amounted to 320 nM; in data set [5], 4.5 nM.

For `Cc1cc(-c2cnc3[nH]cc(-c4ccn(C)c(=O)c4)c3c2)cc2c1C(=O)N([C@@H](C)C1CC1)C2`, the values for the Selectivity ratio in data set [1] and in data set [3] were 128 and 466, respectively. Also, the figures for the IC50 in data set [2] and in data set [5] were 200 nM and 26 nM, respectively.

As for `COC[C@H](C)N1Cc2cc(-c3cnc4[nH]cc(-c5ccncc5)c4c3)cc(C)c2C1=O`, the Selectivity ratio in data set [1] was found to be 216; in data set [3] it was 51. The values for the 50% inhibitory concentration (IC50) in data set [2] and in data set [5] were 600 nM and 9 nM, respectively.

On to `Cc1cc(-c2cnc3[nH]cc(-c4ccc(S(N)(=O)=O)cc4)c3c2)cc2c1C(=O)N([C@@H](C)C1CC1)C2`, for which the Selectivity ratio in data set [1] came to 463; in data set [3] it was 1060. For the same compound, the values for the concentration for half-maximal inhibition (IC50) in data set [2] and in data set [5] were 400 nM and 5 nM, respectively.

For `Cc1cc(-c2cnc3[nH]cc(-c4ccc(C(C)(C)O)nc4)c3c2)cc2c1C(=O)N([C@@H](C)C1CC1)C2`, the Selectivity ratio in data set [1] was 183; in data set [3], 416. For the same compound, the IC50 in data set [2] is 600 nM; in data set [5] it was 3.3 nM.

`Cc1cc(-c2cnc3[nH]cc(-c4cccnc4)c3c2)cc2c1C(=O)N(C(C)C1CC1)C2` (racemic): the Selectivity ratio in data set [1] was 112; in data set [3], 89. The IC50 in data set [2] is 400 nM; in data set [5] it was 7 nM.

For the compound `Cc1cc(-c2cnc3[nH]cc(C(=O)O)c3c2)cc2c1C(=O)N([C@@H](C)C1CC1)C2`, the Selectivity ratio in data set [1] and in data set [3] was above 775 each time. Further, the IC50 amounted to 11000 nM in data set [2] and 13 nM in data set [5].
